According to the supplement of paper PMC13380429:

What was measured:
Conditions in all cases: 72 h
[1] = test system: Caco-2; test: cell viability relative to DMSO; higher = less toxic
[2] = test system: HepG2; test: as above
[3] = test system: U2OS; test: as above
[4] = test system: Vero E6; test: as above
[5] = test system: Caco-2; test: relative viability EC50 (midpoint between 100% and the lowest measured viability); higher = less toxic
[6] = test system: HepG2; test: as above
[7] = test system: U2OS; test: as above
[8] = test system: Vero E6; test: as above
[9] = test system: Caco-2; test: drug sensitivity score (DSS) for viability; higher = more toxic; extreme values may be limits of the assay
[10] = test system: HepG2; test: as above
[11] = test system: U2OS; test: as above
[12] = test system: Vero E6; test: as above
[13] = test system: Calu-3; test: cell viability relative to DMSO; higher = less toxic
[14] = test system: Calu-3; test: relative viability EC50 (midpoint between 100% and the lowest measured viability); higher = less toxic
[15] = test system: Calu-3; test: drug sensitivity score (DSS) for viability; higher = more toxic; extreme values may be limits of the assay

| SMILES | cell viability ([1]; 1 nM) [%] | cell viability ([1]; 10 nM) [%] | cell viability ([1]; 100 nM) [%] | cell viability ([1]; 1000 nM) [%] | cell viability ([1]; 10000 nM) [%] | cell viability ([2]; 1 nM) [%] | cell viability ([2]; 10 nM) [%] | cell viability ([2]; 100 nM) [%] | cell viability ([2]; 1000 nM) [%] | cell viability ([2]; 10000 nM) [%] | cell viability ([3]; 1 nM) [%] | cell viability ([3]; 10 nM) [%] | cell viability ([3]; 100 nM) [%] | cell viability ([3]; 1000 nM) [%] | cell viability ([3]; 10000 nM) [%] | cell viability ([4]; 1 nM) [%] | cell viability ([4]; 10 nM) [%] | cell viability ([4]; 100 nM) [%] | cell viability ([4]; 1000 nM) [%] | cell viability ([4]; 10000 nM) [%] | relative viability EC50 [5] [µM] | relative viability EC50 [6] [µM] | relative viability EC50 [7] [µM] | relative viability EC50 [8] [µM] | drug sensitivity score [9] | drug sensitivity score [10] | drug sensitivity score [11] | drug sensitivity score [12] | cell viability ([13]; 1 nM) [%] | cell viability ([13]; 10 nM) [%] | cell viability ([13]; 100 nM) [%] | cell viability ([13]; 1000 nM) [%] | cell viability ([13]; 10000 nM) [%] | relative viability EC50 [14] [µM] | drug sensitivity score [15] |
| --- | --- | --- | --- | --- | --- | --- | --- | --- | --- | --- | --- | --- | --- | --- | --- | --- | --- | --- | --- | --- | --- | --- | --- | --- | --- | --- | --- | --- | --- | --- | --- | --- | --- | --- | --- |
| N#Cc1c(-c2ccccc2)cc(-c2cc(Br)ccc2O)[nH]c1=O [TCS-PIM-1-1] | 96.7 | 101 | 104 | 97.5 | 88.8 | 94.9 | 99.4 | 99.7 | 94.5 | 99.2 | 99 | 96.3 | 102 | 97.6 | 93.9 | 96.9 | 101 | 95.5 | 96 | 93.1 | > 10 | > 10 | > 10 | > 10 | 0.1 | 0 | 0 | 0 |  |  |  |  |  |  |  |
| CC(=O)[C@]1(N)Cc2c(O)c3c(c(O)c2[C@@H](O[C@H]2C[C@H](O)[C@H](O)CO2)C1)C(=O)c1ccccc1C3=O [amrubicin] | 101 | 105 | 99.6 | 86.9 | 7.4 | 105 | 110 | 103 | 84.5 | -0.2 | 104 | 99 | 102 | 102 | 73.7 | 96 | 104 | 99.8 | 88.4 | 32.1 | 2.04 | 1.96 |  | 1.87 | 7.3 | 8.1 | 0.9 | 5.7 | 96 | 117 | 114 | 110 | 86.7 | > 10 | 0 |
| CO[C@@]1(NC(=O)CSCC#N)C(=O)N2C(C(=O)O)=C(CSc3nnnn3C)CS[C@@H]21 [cefmetazole] | 109 | 106 | 108 | 94.7 | 105 | 106 | 105 | 99.7 | 97.4 | 117 |  |  |  |  |  | 96.7 | 102 | 102 | 97.9 | 93.2 | > 10 | > 10 |  | > 10 | 0 | 0 |  | 0 | 101 | 97.6 | 99.7 | 108 | 108 | > 10 | 0 |
| CC1(COc2ccc3c(c2)ncn3-c2ccc3cccc(N4CCC(N)CC4)c3n2)COC1 [crenolanib] | 101 | 97.1 | 102 | 112 | 94.5 | 107 | 103 | 107 | 101 | 9.5 | 106 | 102 | 106 | 101 | 9.4 | 102 | 104 | 101 | 102 | 22.6 | > 10 | 3.26 | 3.26 | 3.3 | 0 | 4.9 | 4.9 | 4.1 |  |  |  |  |  |  |  |
| COC(=O)/C=C/c1cc(O)ccc1O [erbstatin-analog] | 97.7 | 102 | 91.8 | 94.3 | 40.9 | 92 | 101 | 99.8 | 102 | 50 | 101 | 103 | 95.2 | 97.4 | 34.8 | 98.8 | 96.1 | 94.7 | 74.8 | 22.6 | 2.37 | 3.37 | 2.86 | 1.41 | 4.1 | 2.5 | 3.9 | 7.6 | 113 | 97.6 | 106 | 99.2 | 73.3 |  | 1.2 |
| CN(C)CCCN1c2ccccc2CCc2ccccc21 [imipramine] |  |  |  |  |  | 95.9 | 102 | 104 | 95.3 | 98.1 | 101 | 103 | 96 | 102 | 90.4 | 100 | 98.7 | 99.4 | 96.6 | 98.5 |  | > 10 | > 10 | > 10 |  | 0 | 0 | 0 | 88.8 | 105 | 96.1 | 108 | 94.3 | > 10 | 0 |
| CCN(CC)CC(=O)Nc1c(C)cccc1C [lidocaine] | 103 | 108 | 90.8 | 80.4 | 97 | 101 | 97.4 | 88.1 | 116 | 107 | 99.7 | 105 | 94.8 | 97.2 | 100 | 108 | 101 | 105 | 97.8 | 97.9 | > 10 | > 10 | > 10 | > 10 | 3.6 | 0 | 0 | 0 |  |  |  |  |  |  |  |
